{"source": "patent EP2077092A2", "about": "“System and Methods for Screening or Analyzing Targets” (Taipei Veterans General Hospital, priority 2007, dated 2009)", "key": {"c-FLIP promoter": {"tested_on": "c-FLIP promoter", "experiment": "c-FLIP promoter luciferase assay in fluoxetine-treated NSCs", "assay_type": "cell-based, Sprague-Dawley rats", "details": "fluoxetine 20 µm; full-length and deletion mutants of the c-FLIP promoter in NSCs", "experimental": "(§1) All animal used were treated in accordance with the Animal Care and Use Committee guideline at Taipei Veterans General Hospital. Adult Sprague-Dawley rats (8 weeks old, 250 g) were anesthetized with intraperitoneal phenobarbital (Sigma, USA). The location of their brains was mapped: then, the brain was surgically separated from the hippocampus region with the procedure. Tissues from the hippocampus of the adult SD rats were dissociated and incubated in Hank's balanced salt solution (HB'SS) containing collagenase (78 units/ml) and hyaluronidase (38 units/ml) for 10 mins at 37°C. The tissues were then mechanically dissected and placed in a trypsin solution (1.33 mg/ml) at 37°C for another 10 mins. Dissociated cells were then centrifuged at 150g for 5 mins. The enzyme solution was then removed and replaced with serum-free culture media composed of Dulbecco modified Eagle medium (DMEM) and F-12 nutrient (1:1) including insulin (25 µg/mL), transferrin (100 µg/mL), progesterone (20 nM), putrescine (60µM), sodium selenite (30 nM), and human […] epidermal growth factor (EGF) 20 ng/mL and fibroblast growth factor-basic (bFGF) 20 ng/mL (R&D Systems, Minneapolis, MN). Viable cells were counted by trypan blue exclusion and plated as 5000 cells/200 µL per well in 96-well plates (Corning, Acton, MA) with no substrate pretreatment. […]"}, "c-FLIP": {"tested_on": "c-FLIP", "experiment": "c-FLIP mRNA expression in fluoxetine-treated NSCs (real-time RT-PCR)", "assay_type": "cell-based, Sprague-Dawley rats", "details": "FL-treated NSCs", "experimental": "(§2) All animal used were treated in accordance with the Animal Care and Use Committee guideline at Taipei Veterans General Hospital. Adult Sprague-Dawley rats (8 weeks old, 250 g) were anesthetized with intraperitoneal phenobarbital (Sigma, USA). The location of their brains was mapped: then, the brain was surgically separated from the hippocampus region with the procedure. Tissues from the hippocampus of the adult SD rats were dissociated and incubated in Hank's balanced salt solution (HB'SS) containing collagenase (78 units/ml) and hyaluronidase (38 units/ml) for 10 mins at 37°C. The tissues were then mechanically dissected and placed in a trypsin solution (1.33 mg/ml) at 37°C for another 10 mins. Dissociated cells were then centrifuged at 150g for 5 mins. […] Viable cells were counted by trypan blue exclusion and plated as 5000 cells/200 µL per well in 96-well plates (Corning, Acton, MA) with no substrate pretreatment.\nFor real-time RT-PCR, the total RNA was extracted using the RNAeasy kit (Qiagen, Valencia, CA, USA) as previously described C.L. Kao et al., Mod Pathol 18 (2005) 769-778.[15]. […] The quantification in the unknown samples was performed by the LightCycler Relative Quantification Software version 3.3 (Roche Molecular Systems, Alameda, CA, USA). […]"}, "c-FLIPL": {"tested_on": "c-FLIPL", "experiment": "c-FLIP protein expression in fluoxetine-treated NSCs (Western analysis)", "assay_type": "cell-based, Sprague-Dawley rats", "details": "FL-treated NSCs", "experimental": "as §2, with “pretreatment. […]” for “pretreatment.”\nAn avidin-biotin complex method was used for the immunohistochemical staining in the differentiated NSCs. […] Immunoreactive signals were detected with a mixture of biotinylated rabbit antimouse IgG and Fluoesave (Calbiochem, La Jolla, CA, USA) under immunofluorescent microscope (Olympus FV300)."}, "[1]": {"tested_on": "inactive caspases 8 (pro-form)", "experiment": "Protein level of inactive caspase 8 (pro-form) in fluoxetine-treated NSCs", "assay_type": "cell-based, Sprague-Dawley rats", "details": "different concentrations of fluoxetine treatment", "experimental": "as §1"}, "[2]": {"tested_on": "inactive caspases 3 (pro-form)", "experiment": "Protein level of inactive caspase 3 (pro-form) in fluoxetine-treated NSCs", "assay_type": "cell-based, Sprague-Dawley rats", "details": "different concentrations of fluoxetine treatment", "experimental": "as §1"}, "[3]": {"design": "species or system Sprague-Dawley rats", "details": "in vivo, iv, 30 mg/kg, 360 min", "experimental": "Adult, male Sprague-Dawley rats (280-350 g) were obtained from the Laboratory Animal Center at National Yang-Ming University (Taipei, Taiwan). These animals were specifically pathogen-free and were allowed to acclimate to their environmentally controlled quarters (24 ± 1°C and 12:12 h light-dark cycle) for at least 5 days before the experiments began. At the start of experiments, the rats were anesthetized with urethane 0.8 g/ml and chloralose 0.08 g/ml ([…], i.p.). Throughout the experimental period, anesthesia was maintained by administering one quarter of the initial dose at each hour. The experimental animals were kept warm with a heating pad throughout the experiments.\nThe HPLC system consisted of a chromatographic pump (BAS PM-80, Bioanalytical System, West Lafayette, IN, USA), an on-line injector (CMA/160, Stockholm, Sweden) equipped with a 20 µl sample loop and a UV detector (Soma S-3702, Tokyo, Japan). […] Output signal from the HPLC-UV was recorded using an EZChrom chromatographic data system (Scientific Software, San Ramon, CA, USA). […]\nFor in vivo recovery, normal saline solution containing cefoperazone (50 or 100 µg/ml) were pumped through the probes at a constant flow rate (2 µl/min) using the infusion pump (CMA/100). After a stabilization period of 2 h, the inlet (Cin) and outlet (Cout) concentrations of cefoperazone were determined by HPLC. […]"}, "Bcl-2 protein": {"tested_on": "Bcl-2 protein", "experiment": "Bcl-2 protein expression in NSCs by western blot and immunohistochemistry", "assay_type": "cell-based, Sprague-Dawley (SD) rats", "details": "siRNA or MAPK inhibitor added to IM-treated NSCs"}, "LPS-treated NSCs [4]": {"tested_on": "LPS-treated NSCs", "experiment": "MTT cell survival of LPS-treated NSCs", "assay_type": "cell-based, Sprague-Dawley (SD) rats", "details": "siRNA or U0126 added to LPS- and IM-treated NSCs"}, "caspase 8": {"tested_on": "caspase 8", "experiment": "Caspase 8 activity ELISA in LPS-treated NSCs", "assay_type": "cell-based, Sprague-Dawley (SD) rats", "details": "siRNA or U0126 (40 µM) added to LPS- and IM-treated NSCs"}, "caspase 3": {"tested_on": "caspase 3", "experiment": "Caspase 3 activity ELISA in LPS-treated NSCs", "assay_type": "cell-based, Sprague-Dawley (SD) rats", "details": "siRNA or U0126 (40 µM) added to LPS- and IM-treated NSCs"}, "LPS-treated NSCs [5]": {"tested_on": "LPS-treated NSCs", "experiment": "TUNEL assay of LPS-induced apoptosis in NSCs", "assay_type": "cell-based, Sprague-Dawley (SD) rats", "details": "siRNA or U0126 (40 µM) added to LPS- and IM-treated NSCs"}, "IL-1β": {"tested_on": "IL-1β", "experiment": "IL-1β ELISA in LPS-treated NSCs", "assay_type": "cell-based, Sprague-Dawley (SD) rats", "details": "siRNA or U0126 (40 µM) added to LPS- and IM-treated NSCs"}, "IL-6": {"tested_on": "IL-6", "experiment": "IL-6 ELISA in LPS-treated NSCs", "assay_type": "cell-based, Sprague-Dawley (SD) rats", "details": "siRNA or U0126 (40 µM) added to LPS- and IM-treated NSCs"}, "TNF-α": {"tested_on": "TNF-α", "experiment": "TNF-α ELISA in LPS-treated NSCs", "assay_type": "cell-based, Sprague-Dawley (SD) rats", "details": "siRNA or U0126 (40 µM) added to LPS- and IM-treated NSCs"}, "NSCs [6]": {"tested_on": "NSCs", "experiment": "Immunofluorescent assay of MAP-2-positive cells in differentiating NSCs", "assay_type": "cell-based, Sprague-Dawley (SD) rats", "details": "siRNA or U0126 added, Day 7 culture of IM-treated NSCs"}, "NSCs [7]": {"tested_on": "NSCs", "experiment": "Immunofluorescent assay of serotonin (5-HT)-positive cells in differentiating NSCs", "assay_type": "cell-based, Sprague-Dawley (SD) rats", "details": "siRNA or U0126 added, Day 7 culture of IM-treated NSCs"}, "NSCs [8]": {"tested_on": "NSCs", "experiment": "Microdialysis with HPLC-ECD of 5-HT in the culture medium of IM-treated NSCs", "assay_type": "cell-based, Sprague-Dawley (SD) rats", "details": "siRNA or U0126 added, Day 7 and Day 14, p<0.05"}}, "data": [{"smiles": "CNCCC(Oc1ccc(C(F)(F)F)cc1)c1ccccc1", "note": "(centres unmarked) [FL, fluoxetine]", "values": [{"measurement": "activation of c-FLIP promoter (luciferase assay)", "setting": "c-FLIP promoter", "result": "c-FLIP promoter region from bp -414 to -133 was necessary for its activation by FL"}, {"measurement": "mRNA expression of c-FLIP", "setting": "c-FLIP", "result": "up-regulated"}, {"measurement": "protein expression of c-FLIP", "setting": "c-FLIPL", "result": "up-regulated"}, {"measurement": "protein levels of inactive caspases 8 (pro-form)", "setting": "[1]", "result": "not decreased"}, {"measurement": "protein levels of inactive caspases 3 (pro-form)", "setting": "[2]", "result": "not decreased"}]}, {"smiles": "CCN1CCN(C(=O)N[C@@H](C(=O)N[C@@H]2C(=O)N3C(C(=O)O)=C(CSc4nnnn4C)CS[C@H]23)c2ccc(O)cc2)C(=O)C1=O", "note": "[cefoperazone]", "values": [{"measurement": "cefoperazone in microdialysate from rat biliary duct", "setting": "[3]", "result": 27.8, "unit": "µg/mL"}]}, {"smiles": "N#CC(=C(/N)Sc1ccccc1N)/C(C#N)=C(\\N)Sc1ccccc1N", "note": "[U0126]", "values": [{"measurement": "Bcl-2 expression induced by IM in NSCs", "setting": "Bcl-2 protein", "result": "effectively blocked"}, {"measurement": "cell viability in the LPS-treated NSCs with IM", "setting": "LPS-treated NSCs [4]", "result": "dramatically decreased"}, {"measurement": "apoptotic activities (caspase 8) in LPS- and IM-treated NSCs", "setting": "caspase 8", "result": "significantly enhanced"}, {"measurement": "apoptotic activities (caspase 3) in LPS- and IM-treated NSCs", "setting": "caspase 3", "result": "significantly enhanced"}, {"measurement": "apoptotic activities (TUNEL) in LPS- and IM-treated NSCs", "setting": "LPS-treated NSCs [5]", "result": "significantly enhanced"}, {"measurement": "levels of IL-1β in LPS-treated NSCs with IM", "setting": "IL-1β", "result": "significantly increased"}, {"measurement": "levels of IL-6 in LPS-treated NSCs with IM", "setting": "IL-6", "result": "significantly increased"}, {"measurement": "levels of TNF-α in LPS-treated NSCs with IM", "setting": "TNF-α", "result": "significantly increased"}, {"measurement": "percentages of MAP-2-positive cells in IM-treated NSCs", "setting": "NSCs [6]", "result": "significantly decrease"}, {"measurement": "percentages of serotonin (5-HT)-positive cells in IM-treated NSCs", "setting": "NSCs [7]", "result": "significantly decrease"}, {"measurement": "production of 5-HT of the IM-treated NSCs", "setting": "NSCs [8]", "result": "significantly diminished"}]}]}
